Values of other authors as cited in patent US5089474A, “Novel microproteins” (Roussel Uclaf, priority 1989, dated 1992).

Tested on: trypsin
Settings: statement in words on the known EETI II; cited from earlier work

## EETI II
  property of inhibiting trypsin: inhibiting trypsin
